Values after ≈ are worked out from the molar mass of the structure shown.
Assays:
Enterobacter cloacae 963 = assay: MIC, twofold agar dilution method (standard laboratory strain); type: cell-based; conditions: Enterobacter cloacae 963, Gram -; 10^6 cfu/ml; 18 hrs at 37 °C
Description: (§1) Overnight cultures in Mueller-Hinton broth were suspended by buffered saline gelatin. One loopful of the bacterial suspension (10⁶ or 10⁸ colony-forming units/ml) was incubated onto the plates containing test compounds. The plates were incubated for 18 hrs at 37 °C. The MIC was defined by the lowest concentration of the drug that inhibited visible growth of bacteria.

[1] = tested on: Escherichia coli NIHJ JC-2; assay: as above; type: cell-based; conditions: NIHJJC2; Escherichia coli NIHJ JC-2, Gram -; 10^6 cfu/ml; 18 hrs at 37 °C
Description: as §1

[2] = tested on: Pseudomonas aeruginosa IFO 3445; assay: as above; type: cell-based; conditions: IFO3445; Pseudomonas aeruginosa IFO 3445, Gram -; 10^6 cfu/ml; 18 hrs at 37 °C
Description: as §1

[3] = tested on: Serratia marcescens IAM 1184; assay: as above; type: cell-based; conditions: IAM1184; Serratia marcescens IAM 1184, Gram -; 10^6 cfu/ml; 18 hrs at 37 °C
Description: as §1

[4] = tested on: Staphylococuss aureus FDA 209PJC-1; assay: as above; type: cell-based; conditions: Staphylococuss aureus FDA 209PJC-1, Gram +; 10^6 cfu/ml; 18 hrs at 37 °C
Description: as §1

[5] = tested on: Klebsiella pneumoniae PCI-602; assay: as above; type: cell-based; conditions: PCI602; Klebsiella pneumoniae PCI-602, Gram -; 10^6 cfu/ml; 18 hrs at 37 °C; read-out: MIC
Description: as §1, with “Minimum inhibitory concentrations (MIC) of test compounds were determined by the twofold agar dilution method (Chemotherapy, 29(1), 76(1981)). Overnight” for “Overnight”

[6] = tested on: Acinetobacter calcoaceticus HNR 904; assay: MIC, twofold agar dilution method (clinically isolated strain); type: cell-based; conditions: HNR904; Acinetobacter calcoaceticus HNR 904, Gram -; 10^6 cfu/ml; 18 hrs at 37 °C
Description: as §1

[7] = tested on: Acinetobacter calcoaceticus HNR 916; assay: as above; type: cell-based; conditions: HNR916; Acinetobacter calcoaceticus HNR 916, Gram -; 10^6 cfu/ml; 18 hrs at 37 °C
Description: as §1

[8] = tested on: Acinetobacter calcoaceticus HNR 939; assay: as above; type: cell-based; conditions: HNR939; Acinetobacter calcoaceticus HNR 939, Gram -; 10^6 cfu/ml; 18 hrs at 37 °C
Description: as §1

[9] = tested on: Enterobacter cloacae HNR 1939; assay: as above; type: cell-based; conditions: HNR1939; Enterobacter cloacae HNR 1939, Gram -; 10^6 cfu/ml; 18 hrs at 37 °C
Description: as §1

[10] = tested on: Enterobacter cloacae HNR 1941; assay: as above; type: cell-based; conditions: HNR1941; Enterobacter cloacae HNR 1941, Gram -; 10^6 cfu/ml; 18 hrs at 37 °C
Description: as §1

[11] = tested on: Enterobacter cloacae HNR 1946; assay: as above; type: cell-based; conditions: HNR1946; Enterobacter cloacae HNR 1946, Gram -; 10^6 cfu/ml; 18 hrs at 37 °C
Description: as §1

[12] = tested on: Enterococcus faecalis HPC 948; assay: as above; type: cell-based; conditions: HPC948; Enterococcus faecalis HPC 948, Gram +; 10^6 cfu/ml; 18 hrs at 37 °C
Description: as §1

[13] = tested on: Enterococcus faecalis HPC 975; assay: as above; type: cell-based; conditions: HPC975; Enterococcus faecalis HPC 975, Gram +; 10^6 cfu/ml; 18 hrs at 37 °C
Description: as §1

[14] = tested on: Enterococcus faecalis HPC 984; assay: as above; type: cell-based; conditions: HPC984; Enterococcus faecalis HPC 984, Gram +; 10^6 cfu/ml; 18 hrs at 37 °C
Description: as §1

[15] = tested on: Klebsiella pneumoniae HNR 828; assay: as above; type: cell-based; conditions: HNR828; Klebsiella pneumoniae HNR 828, Gram -; 10^6 cfu/ml; 18 hrs at 37 °C
Description: as §1

[16] = tested on: Klebsiella pneumoniae HNR 858; assay: as above; type: cell-based; conditions: HNR858; Klebsiella pneumoniae HNR 858, Gram -; 10^6 cfu/ml; 18 hrs at 37 °C
Description: as §1

[17] = tested on: Klebsiella pneumoniae HNR 869; assay: as above; type: cell-based; conditions: HNR869; Klebsiella pneumoniae HNR 869, Gram -; 10^6 cfu/ml; 18 hrs at 37 °C
Description: as §1

[18] = tested on: Pseudomonas aeruginosa HNR 1472; assay: as above; type: cell-based; conditions: HNR1472; Pseudomonas aeruginosa HNR 1472, Gram -; 10^6 cfu/ml; 18 hrs at 37 °C
Description: as §1

[19] = tested on: Pseudomonas aeruginosa HNR 1489; assay: as above; type: cell-based; conditions: HNR1489; Pseudomonas aeruginosa HNR 1489, Gram -; 10^6 cfu/ml; 18 hrs at 37 °C
Description: as §1

[20] = tested on: Pseudomonas aeruginosa HNR 1537; assay: as above; type: cell-based; conditions: HNR1537; Pseudomonas aeruginosa HNR 1537, Gram -; 10^6 cfu/ml; 18 hrs at 37 °C
Description: as §1

[21] = tested on: Serratia marcescens HNR 1544; assay: as above; type: cell-based; conditions: HNR1544; Serratia marcescens HNR 1544, Gram -; 10^6 cfu/ml; 18 hrs at 37 °C
Description: as §1

[22] = tested on: Serratia marcescens HNR 1767; assay: as above; type: cell-based; conditions: HNR1767; Serratia marcescens HNR 1767, Gram -; 10^6 cfu/ml; 18 hrs at 37 °C
Description: as §1

[23] = tested on: Serratia marcescens HNR 1792; assay: as above; type: cell-based; conditions: HNR1792; Serratia marcescens HNR 1792, Gram -; 10^6 cfu/ml; 18 hrs at 37 °C
Description: as §1

[24] = tested on: Staphylococcuss aureus HPC 292; assay: as above; type: cell-based; conditions: Staphylococcuss aureus HPC 292, Gram +; 10^6 cfu/ml; 18 hrs at 37 °C
Description: as §1

[25] = tested on: Staphylococcuss aureus HPC 308; assay: as above; type: cell-based; conditions: Staphylococcuss aureus HPC 308, Gram +; 10^6 cfu/ml; 18 hrs at 37 °C
Description: as §1

[26] = tested on: Staphylococcuss aureus HPC 527; assay: as above; type: cell-based; conditions: Staphylococcuss aureus HPC 527, Gram +; 10^6 cfu/ml; 18 hrs at 37 °C
Description: as §1

Male mice of ddY strain = assay: Convulsion inducing activity in combination with fenbufen; conditions: thirty minutes after fenbufen 100 mg/kg orally
Description: Male mice of ddY strain, 5 weeks old, were used. Fenbufen suspended in 0.5 % carboxymethylcellulose was administered orally at a dose of 100 mg/kg. After thirty minutes, test compounds suspended in 0.5 % carboxymethylcellulose were injected intraperitoneally (i.p.) at a dose of 100 mg/kg or 300 mg/kg.

With `CC1Sc2c(C(=O)O)c(=O)c3cc(F)c(N4CCC(N)C4)cc3n21` (stereo not shown) [Ref. Drug D, 7-(3-amino-1-pyrrolidinyl)-6-fluoro-1-methyl-4-oxo-1H,4H-[1,3]thiazeto[3,2-a]quinoline-3-carboxylic acid] the MIC (Enterobacter cloacae 963) was 0.05 µg/mL (≈ 0.143 µM), the MIC [1] was 0.05 µg/mL (≈ 0.143 µM) and the MIC [2] was 0.1 µg/mL (≈ 0.286 µM). For the same compound, the MIC [3] was 0.1 µg/mL (≈ 0.286 µM), the MIC [4] was 0.05 µg/mL (≈ 0.143 µM) and the MIC [5] was 0.012 µg/mL (≈ 0.0343 µM). The MIC [6] was > 100 µg/mL, the MIC [7] was 0.39 µg/mL (≈ 1.12 µM) and the MIC [8] was 6.25 µg/mL (≈ 17.9 µM). For the same compound, the MIC [9] was 0.39 µg/mL (≈ 1.12 µM), the MIC [10] was > 100 µg/mL and the MIC [11] was 0.78 µg/mL (≈ 2.23 µM). The MIC [12] was 3.13 µg/mL (≈ 8.96 µM), the MIC [13] was > 100 µg/mL and the MIC [14] was 0.39 µg/mL (≈ 1.12 µM). For the same compound, the MIC [15] was 50 µg/mL (≈ 143 µM), the MIC [16] was 0.39 µg/mL (≈ 1.12 µM) and the MIC [17] was 3.13 µg/mL (≈ 8.96 µM). The MIC [18] was 50 µg/mL (≈ 143 µM), the MIC [19] was 0.1 µg/mL (≈ 0.286 µM) and the MIC [20] was 1.56 µg/mL (≈ 4.46 µM). For the same compound, the MIC [21] was 0.1 µg/mL (≈ 0.286 µM), the MIC [22] was > 100 µg/mL and the MIC [23] was 50 µg/mL (≈ 143 µM). For the same compound, the MIC [24] was > 100 µg/mL, the MIC [25] was 25 µg/mL (≈ 71.6 µM) and the MIC [26] was 0.1 µg/mL (≈ 0.286 µM). For the same compound, the “Number of convulsion induced / Number of animals” value (Male mice of ddY strain; 100 mg/kg (i.p.)) was 0 / 6 and the “Number of convulsion induced / Number of animals” value (Male mice of ddY strain; 300 mg/kg (i.p.)) was 0 / 6.
`CC1Sc2c(C(=O)O)c(=O)c3cc(F)c(N4CC[C@H](N)C4)c(Cl)c3n21` (single isomer, unassigned) [Example 15] was tested, and the MIC (Enterobacter cloacae 963) was 0.012 µg/mL (≈ 0.0313 µM), the MIC [1] was 0.012 µg/mL (≈ 0.0313 µM) and the MIC [2] was 0.05 µg/mL (≈ 0.13 µM). The MIC [3] was 0.025 µg/mL (≈ 0.0651 µM), the MIC [4] was 0.025 µg/mL (≈ 0.0651 µM) and the MIC [5] was 0.006 µg/mL (≈ 0.0156 µM). For the same compound, the MIC [6] was 6.25 µg/mL (≈ 16.3 µM), the MIC [7] was 0.05 µg/mL (≈ 0.13 µM) and the MIC [8] was 0.78 µg/mL (≈ 2.03 µM). For the same compound, the MIC [9] was 0.1 µg/mL (≈ 0.261 µM), the MIC [10] was 0.78 µg/mL (≈ 2.03 µM) and the MIC [11] was 0.1 µg/mL (≈ 0.261 µM). The MIC [12] was 0.39 µg/mL (≈ 1.02 µM), the MIC [13] was 1.56 µg/mL (≈ 4.06 µM) and the MIC [14] was 0.1 µg/mL (≈ 0.261 µM). It also gave an MIC [15] of 0.78 µg/mL (≈ 2.03 µM), an MIC [16] of 0.1 µg/mL (≈ 0.261 µM) and an MIC [17] of 0.2 µg/mL (≈ 0.521 µM). For the same compound, the MIC [18] was 1.56 µg/mL (≈ 4.06 µM), the MIC [19] was 0.1 µg/mL (≈ 0.261 µM) and the MIC [20] was 1.56 µg/mL (≈ 4.06 µM). For the same compound, the MIC [21] was 0.025 µg/mL (≈ 0.0651 µM), the MIC [22] was 1.56 µg/mL (≈ 4.06 µM) and the MIC [23] was 0.39 µg/mL (≈ 1.02 µM). For the same compound, the MIC [24] was 1.56 µg/mL (≈ 4.06 µM), the MIC [25] was 0.39 µg/mL (≈ 1.02 µM) and the MIC [26] was 0.025 µg/mL (≈ 0.0651 µM). For the same compound, the “Number of convulsion induced / Number of animals” value (Male mice of ddY strain; 100 mg/kg (i.p.)) was 0 / 6 and the “Number of convulsion induced / Number of animals” value (Male mice of ddY strain; 300 mg/kg (i.p.)) was 0 / 6.

Source: patent EP0465716A1, “Optically active thiazetoquino-line-3-carboxylic acid compound, method for preparation thereof, and a pharmaceutical composition comprising the same” (priority 1990, dated 1992)
